From ChEMBL document CHEMBL2062358, “Hortonones A to C, hydroazulenones from the genus Hortonia” (J Nat Prod, 2012)
The source made the active and inactive calls. The rule behind the calls is not given here.

Tests used:
[1] = tested on: MCF7; assay: Cytotoxicity against human MCF7 cells at 100 ug/ml after 48 hrs by MTT assay; type: functional, cell-based
[2] = tested on: MCF7; assay: Cytotoxicity against human MCF7 cells at 5 ug/ml after 48 hrs by MTT assay; type: functional, cell-based

With `CC1=CC(=O)[C@H]2CC[C@H](C(C)C)[C@@]2(C)CC1` (relative stereo) the Activity [1] was “inactive”.
In the case of `CC(C)[C@H]1CC[C@@H]2C(=O)C=C(CO)CC[C@@]21C` (relative stereo), the Activity [1] is reported as “inactive”.
`CC(C)[C@H]1CC[C@@H]2C=CC(=O)CC[C@]12C` (relative stereo) was tested, and the Activity [2] was “Active”.
